Activity and Tm data for one molecule are collected here from ChEMBL document CHEMBL5338771, “Trioxacarcin A Interactions with G-Quadruplex DNA Reveal Its Potential New Targets as an Anticancer Agent” (J Med Chem, 2023).

Active and inactive are the calls of the source. No cut-off for these calls is given here.

Common to all, as to assay type: nucleic-acid assay
In assay [1] the test system is Quadruplex DNA. In words: Binding affinity to RET G4 quadruplex DNA (unknown origin) by measuring chemical shift change for 0 to 21 days by 1D 1H-NMR analysis. The conditions noted are these: time 0-21 day.
For assay [2], the system named is Quadruplex DNA. In words: Induction of DNA stabilization in free RET G4 quadruplex DNA (unknown origin) assessed as melting temperature in 100 mM K+ buffer solution by DSC spectra analysis. A general note: Differential scanning calorimetry records heat flow against a reference as temperature is scanned.
Assay [3] relates to Quadruplex DNA. In words: Covalent binding affinity to RET G4 quadruplex DNA (unknown origin) assessed as alkylation at G4 base at 98 degC for 5 mins by DNA cleavage assay.
The test system of assay [4] is Quadruplex DNA. In words: Induction of DNA stabilization in RET G4 quadruplex DNA (unknown origin) containing 2'-F base G4 assessed as melting temperature (reference value: 71.99 degreeC).
Assay [5] concerns Quadruplex DNA. In words: Binding affinity to c-MYC G4 quadruplex DNA (unknown origin) by 1D 1H-NMR analysis.
The subject of assay [6] is Quadruplex DNA. In words: Covalent binding affinity to RET G4 quadruplex DNA (unknown origin) assessed as alkylation at G6 base by DNA cleavage assay.
Assay [7] relates to Quadruplex DNA. In words: Covalent binding affinity to RET G4 quadruplex DNA (unknown origin) assessed as stable complex formation by measuring molecular weight peak after 19 days by mass spectrum analysis. The conditions noted are these: time 19.0 day.
Assay [8] deals with Quadruplex DNA. In words: Covalent binding affinity to RET G4 quadruplex DNA (unknown origin) assessed as alkylation at G14 base by DNA cleavage assay.
Assay [9] relates to Quadruplex DNA. In words: Covalent binding affinity to RET G4 quadruplex DNA (unknown origin) assessed as stable complex formation measured after 9 days by mass spectrum analysis. The conditions noted are these: time 9.0 day.
Assay [10] concerns Quadruplex DNA. In words: Induction of DNA stabilization in abasic-basic RET G4 quadruplex DNA (unknown origin) assessed as melting temperature in 100 mM K+ buffer solution by DSC spectra analysis.
Assay [11] deals with Quadruplex DNA. In words: Covalent binding affinity to RET G4 quadruplex DNA (unknown origin) by measuring molecular weight for complex formation by ESI mass spectrum analysis.

Take `COc1c2c(c(O)c3c4c(c(C)cc13)C1O[C@@]3(C(OC)OC)OC1[C@](O[C@H]1C[C@@H](O)[C@@](O)(C(C)=O)[C@H](C)O1)(O4)C31CO1)C(=O)[C@@H](O)C[C@@H]2OC1C[C@](C)(O)[C@@H](OC(C)=O)[C@@H](C)O1` (stereo partly specified): the result in the assay with Quadruplex DNA [1], in the assay on Quadruplex DNA [3], in the assay on Quadruplex DNA [5] and in the assay on Quadruplex DNA [9] was Active. In addition, the Tm in the assay with Quadruplex DNA [2] stood at 91 °C; in the assay on Quadruplex DNA [4] it was 74.7 °C; with Quadruplex DNA [10] it was 78 °C. The outcome in the assay on Quadruplex DNA [6] and in the assay on Quadruplex DNA [8] was inactive. In addition, the Activity was found to be 7330 Da with Quadruplex DNA [7] and 6450 Da with Quadruplex DNA [11].
